Reference: patent US20230263811A1, “APPLICATION OF C[…] TREATMENT OF CORONAVIRUS INFECTIONS” (ACADEMY OF MILITARY MEDICAL SCIENCES, priority 2020, published 2023)
pEC50: −log10 of the molar value.

Legend:
Format in all cases: cell-based
[1] = Cytotoxicity test of drug (CCK-8 kit); conditions: African green monkey, Vero E6 cells
Method: (§1) The detection of the drug cytotoxicity was performed using CCK-8 kit (Beoytime). Specific steps were as follows:
(§2) 1) 1×10^4 Vero E6 (ATCC) cells were placed in a 96-well plate and incubated at 37° C. for 8 hours.
(§3) 2) The drug was diluted with DMSO to an appropriate concentration of mother liquor, and then diluted with MEM medium (purchased from Gibco, Catalog No. 10370021) containing 2% FBS (purchased from Gibco, Catalog No. 16000044) to the same concentration as that for the drug treatment. The original medium in the 96-well plate was discarded, 100 μL of drug-containing MEM medium was added to the cells, and three replicate wells were prepared for each concentration. Negative control (vehicle group, DMSO and medium were added to the cell wells, without adding drug) and blank control (DMSO and medium were added to the wells, without cells) were set up. After the drug was added, the cells were cultured at 37° C. for 48 hours.
(§4) 3) 20 μL of CCK-8 solution (Beoytime) was added to the well to be tested, mixed gently, without generating bubbles, and continuously incubated at 37° C. for 2 hours. OD450 was read on a microplate reader (purchased from Molecular Devices, Model: SpectraMax M5), and cell viability was calculated:
(§5) Cell activity (%)=(A(drug treatment group)−A(blank control))/(A(vehicle control)−A(blank control))=100%
(§6) wherein A was the reading of the microplate reader.

Vero E6 cells = test: Cytotoxicity test of drug (CCK-8 kit); conditions: for Cell viability: Vero E6, 48 h
Method: as §1, §2, §3, §4, §5, §6

SARS-CoV-2 = test: Reduction of viral nucleic acid load of Vero E6 cells infected by SARS-CoV-2 (qRT-PCR of supernatant); conditions: for Viral genome copy number (MOI = 0.05): infected supernatant, 48 h, vehicle 2215912896 ± 388319129

## C=C(C)[C@@H]1CCC(C)=C[C@H]1c1c(O)cc(CCCCC)cc1O [cannabidiol, (−)-2-[(3R,4R)-p-mentha-1,8-dien-3β-yl]-5-pentylresorcinol]
[1]
  CC50 at 48 h: 4.1 µM
Vero E6 cells; 0.78 μM
  Cell viability: 73.45 ± 7.48%
Vero E6 cells; 1.56 μM
  Cell viability: 74.22 ± 13.42%
Vero E6 cells; 3.13 μM
  Cell viability: 58.45 ± 5.30%
Vero E6 cells; 6.25 μM
  Cell viability: 60.07 ± 6.01%
Vero E6 cells; 12.5 μM
  Cell viability: 50.01 ± 8.40%
Vero E6 cells; 25 μM
  Cell viability: 38.39 ± 5.70%
Vero E6 cells; 50 μM
  Cell viability: 22.85 ± 18.47%
Vero E6 cells; 100 μM
  Cell viability: 8.87 ± 3.59%
Vero E6 cells; concentrations of 1.56 μM and 0.78 μM
  Change of cell viability: did not change the cell viability
SARS-CoV-2; 0.04 μM
  Viral genome copy number (MOI = 0.05): 1853011000 ± 279114748
SARS-CoV-2; 0.12 μM
  Viral genome copy number (MOI = 0.05): 1860569042 ± 365350110
SARS-CoV-2; 0.37 μM
  Viral genome copy number (MOI = 0.05): 1224296104 ± 183149682
SARS-CoV-2; 1.11 μM
  Viral genome copy number (MOI = 0.05): 877127896 ± 122398434
SARS-CoV-2; 3.33 μM
  Viral genome copy number (MOI = 0.05): 668555500 ± 83251338
SARS-CoV-2; 48 h after infection of vero E6 cells with SARS-CoV-2 (FIG. 1)
  Inhibition of viral RNA load on cells: the inhibitory activity was dose-dependent
SARS-CoV-2; Severe acute respiratory syndrome coronavirus 2, Vero C1008, Vero E6 cells, read-out: EC50 against SARS-CoV-2
  pEC50: 6.21
SARS-CoV-2; concentrations of 10 μM, 3.3 μM, 1.1 μM and 0.37 μM
  Inhibition of replication of the SARS-CoV-2 virus genome in the infected supernatant: could effectively inhibit the replication
